Measured values taken from patent publication US10561710B2, “Goblet cell replacement therapy” (University of Pittsburgh—Of the Commonwealth System of …, priority 2014, dated 2020).

How the values were obtained:
Assay type in all cases: in vivo, New Zealand white rabbits
bleb tissue [1] = experiment: Histological grading of blebs after modified trabeculectomy (H&E, Masson's trichrome); conditions: rabbit modified trabeculectomy, intraoperative topical application, six week study, vs untreated
Protocol: (§1) In the following studies, modified trabeculectomy was performed in New Zealand white rabbits using a 22 gauge angiocatheter inserted into the anterior chamber. Rabbit eyes were either untreated or treated with IP-10FL (SEQ ID NO: 12) or IP-10p (SEQ ID NO: 13) by intraoperative topical application. Untreated and injured bleb formation was confirmed and assessed weekly after the procedure. All animals were euthanized at the end of the six week study.
To evaluate histological differences in treated and untreated blebs, the globes were embedded in paraffin and stained with hematoxylin and eosin (H&E) and Masson's trichrome. A-semi quantitative histological grading score was used to assess cellularity, collagen deposition (fibrosis) and inflammation to compare findings between the four animal groups (uninjured, control (injured), IP-10 full length treated and IP-10p treated).

[2] = test system: conjunctival goblet cells; experiment: Goblet cell number in treated blebs after modified trabeculectomy; conditions: rabbit modified trabeculectomy, average cell number per high-powered field, six central bleb cross-sections, vs untreated
Protocol: FIGS. 4A-4B: Increased goblet cells in treated blebs. […] (FIG. 4A) Goblet cell number was calculated using the average cell number per high-powered field from six consecutive central bleb cross-sections of each specimen. (FIG. 4B) Representative images (Masson's trichrome stain) show the number of conjunctival goblet cells (asterisks).
as §1
Goblet cells were also evaluated in treated and untreated blebs.

bleb tissue [3] = experiment: Collagen in bleb tissue, Masson's trichrome staining with METAMORPH analysis; conditions: rabbit modified trabeculectomy, vs untreated
Protocol: FIGS. 3A-3B: Decreased fibrosis in treated blebs. […] Collagen was quantified using Masson's trichrome staining. […] Original magnifications ×100.
as §1
Collagen was quantified using Masson's trichrome staining.

bleb tissue [4] = experiment: Neovascularization in bleb tissue by H&E staining (number of capillaries); conditions: rabbit modified trabeculectomy, low-power field in center of injured area, vs untreated
Protocol: FIGS. 2A-2B: Arrested angiogenesis in treated blebs. Neovascularization in the bleb tissue was assessed using H&E staining. (FIG. 2A) Quantitation of the number of capillaries, as determined by morphology, with a low-power field in the center of the injured area is shown in the graph. The data was derived from two independent experiments of at least three globes with each evaluated in three random low-power fields (shown are mean±SD, *P<0.05). […] Original magnifications ×100.
as §1
Next, angiogenesis was evaluated in treated and untreated blebs. Neovascularization in the bleb tissue was assessed by H&E staining.

[5] = test system: conjunctival goblet cells; experiment: Goblet cells in blebs treated with MMC, IP-10p or IP-10p as perioperative rescue at MMC surgery; conditions: rabbit modified trabeculectomy; MMC alone, or MMC then IP-10p as perioperative rescue
Protocol: FIGS. 5A-5B: Goblet cells in treated and untreated blebs. (FIG. 5A) Goblet cells were evaluated in treated and untreated blebs. Bleb tissue was treated with MMC alone, IP-10p alone, or IP-10p as a perioperative “rescue” treatment at the time of MMC surgery.
Modified trabeculectomy was performed in New Zealand white rabbits using a 22 gauge angiocatheter inserted into the anterior chamber.

Substance	inflammation and fibrosis (semi-quantitative histological grading score; collagen content, elastic fiber thickness and orientation) (bleb tissue [1])	number of goblet cells in bleb tissue [2]	collagen deposition in bleb tissue (bleb tissue [3])	number of capillaries present in blebs (bleb tissue [4])	goblet cells / goblet cell density in bleb tissue [5]
IP-10FL: Human IP-10 variant (IP-10FL), SEQ ID NO: 12; CXCR3 activator	reduction in inflammation and fibrosis	increase in the number of goblet cells	significantly less collagen	significantly reduced the number of capillaries	–
IP-10p: Human IP-10 fragment/variant, SEQ ID NO: 13, PESKAIKNLLKAVSKEMSKRSP	reduction in inflammation and fibrosis	increase in the number of goblet cells	significantly less collagen	significantly reduced the number of capillaries	–
mitomycin C [MMC]	–	–	–	–	marked decrease in goblet cells
